Measurements as given in publication PMC6168434 (European journal of medicinal chemistry, 2018).

Tests used:
[1] = biological target: human immunoproteasome hiβ5 (Homo sapiens, UniProt P20618+P28062); assay: Purified human immunoproteasome β5; type: biochemical; conditions: purified human immunoproteasomes 8 μg/mL, Suc-LLVY-AMC
[2] = biological target: yeast 20S proteasome (yCP) yβ5 (Saccharomyces cerevisiae, UniProt P23724+P30656); assay: Purified yeast proteasome inhibition, yβ5; type: biochemical
hcCP β5 in MCF7 cells = assay: Cellular infiltration: β5 inhibition in intact versus lysed MCF7 cells; type: cell-based, human; conditions: one hour treatment, relative to 1
cancer cells = assay: Western blot and flow cytometry analysis of treated cancer cells; type: cell-based; conditions: Figure S4
MCF7 = conditions: MCF7, relative to CysB; cited from earlier work

For `CC[C@H](C)[C@@H]1C(=O)O[C@H]1C(=O)N[C@H](C(=O)N[C@@H](COCc1ccccc1)C(=O)OCc1ccccc1)C(C)C` [Compound 5k, benzylO-benzyl-N-(((2R,3S)-3-((S)-sec-butyl)-4-oxooxetane-2-carbonyl)-L-valyl)-L-serinate], the “isoform preference hiβ5 versus yβ5” value [1] was “slight preference for hiβ5”.
For `CC(C)[C@H](NC(=O)[C@@H](NC(=O)[C@@H]1OC(=O)[C@H]1C(C)C)C(C)C)C(=O)O` [Cystargolide B, reference compound], the “fold decreased IC50 for yβ5 versus yβ1” value [2] was 50 fold.
With `CC[C@H](C)[C@@H]1C(=O)O[C@H]1C(=O)N[C@H](C(=O)N[C@H](C(=O)OCc1ccccc1)C(C)C)C(C)C` [Compound 2, benzyl((2R,3S)-3-((S)-sec-butyl)-4-oxooxetane-2-carbonyl)-L-valyl-L-valinate] the “times more capable of crossing the cell membrane than 1” value (hcCP β5 in MCF7 cells) was “approximately 10 times”, the “isoform preference hiβ5 versus yβ5” value [1] was “slight preference for hiβ5” and the “apoptosis (flow cytometry)” value (cancer cells) was “induced apoptosis”. For the same molecule, the “cell cycle (flow cytometry)” value (cancer cells) was “arrested cells in the G2/M phase” and the “ubiquitinated proteins (Western blot)” value (cancer cells) was “accumulation of ubiquitinated proteins”.
In the case of `CC(C)[C@H](NC(=O)[C@@H]1OC(=O)[C@H]1C(C)C)C(=O)N[C@H](C(=O)OCc1ccccc1)C(C)C` [Compound 1], the “apoptosis (flow cytometry)” value (cancer cells) is reported as “induced apoptosis”, the “cell cycle (flow cytometry)” value (cancer cells) is reported as “arrested cells in the G2/M phase” and the “ubiquitinated proteins (Western blot)” value (cancer cells) is reported as “accumulation of ubiquitinated proteins”. For the same molecule, the “times more cytotoxic than CysB” value (MCF7) was “over 10 times”.
